In patent publication US10266537B2, “3-acetylenyl-pyrazole-pyrimidine derivative, and preparation method therefor and uses thereof” (Si Chuan University, priority 2015, dated 2019):

Legend:
MDA-MB-231 = test: Cell proliferation inhibition assay (MTT); type: cell-based, human; details: Homo sapiens; MDA-MB-231; MTT, 72 hours; read-out: Proliferative inhibitory activity MDA-MB-231 (IC50 class)
MDA-MB-435 = test: Cell proliferation inhibition assay (MTT); type: cell-based, human; details: Homo sapiens; MDA-MB-435; MTT, 72 hours; read-out: Proliferative inhibitory activity MDA-MB-435 (IC50 class)
c-Src(1-530) = c-Src(1-530) (Homo sapiens (Human), UniProt P12931); test: Kinase inhibition assay (KinaseProfiler, 33P-ATP); details: c-Src(1-530); ATP at Km
c-Src(1-530), sequence (P12931 whole entry, looked up): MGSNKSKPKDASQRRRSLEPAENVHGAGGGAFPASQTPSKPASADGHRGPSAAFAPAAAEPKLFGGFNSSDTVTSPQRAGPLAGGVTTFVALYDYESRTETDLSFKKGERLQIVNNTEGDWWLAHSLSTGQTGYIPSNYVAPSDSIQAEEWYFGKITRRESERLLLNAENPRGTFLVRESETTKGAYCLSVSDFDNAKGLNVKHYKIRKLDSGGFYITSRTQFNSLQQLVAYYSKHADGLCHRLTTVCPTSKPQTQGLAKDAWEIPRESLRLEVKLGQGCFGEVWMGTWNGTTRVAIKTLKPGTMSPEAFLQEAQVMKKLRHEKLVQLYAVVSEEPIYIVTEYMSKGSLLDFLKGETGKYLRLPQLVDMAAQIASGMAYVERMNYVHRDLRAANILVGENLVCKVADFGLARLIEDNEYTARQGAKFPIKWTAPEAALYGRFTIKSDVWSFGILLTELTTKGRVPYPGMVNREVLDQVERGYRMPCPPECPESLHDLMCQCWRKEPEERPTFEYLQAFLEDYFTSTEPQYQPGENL

SMILES	IC50 (MDA-MB-231) [nM]	IC50 (MDA-MB-435) [nM]	IC50 (c-Src(1-530)) [nM]
Cc1ccc(C(=O)Nc2ccc(CN3CCN(C)CC3)c(C(F)(F)F)c2)cc1C#Cc1nn(C2CCC2)c2ncnc(N)c12 [Compound 6]	< 100	< 100	9
Cc1ccc(C(=O)Nc2ccc(CN3CCN(C)CC3)c(C(F)(F)F)c2)cc1C#Cc1nn(C2CCCC2)c2ncnc(N)c12 [Compound 7]	< 100	< 100	19
Cc1ccc(C(=O)Nc2ccc(CN3CCN(C)CC3)c(C(F)(F)F)c2)cc1C#Cc1nn(C)c2ncnc(N)c12 [Compound 8]	< 100	< 100	7
CC(C)n1nc(C#Cc2cc(C(=O)Nc3ccc(CN4CCN(C)CC4)c(C(F)(F)F)c3)ccc2Cl)c2c(N)ncnc21 [Compound 9]	100 to 500	< 100	15
CCc1ccc(C(=O)Nc2ccc(CN3CCN(C)CC3)c(C(F)(F)F)c2)cc1C#Cc1nn(CC)c2ncnc(N)c12 [Compound 10]	100 to 500	> 1000	83
Cc1ccc(NC(=O)c2ccc(Cl)c(C(F)(F)F)c2)cc1C#Cc1nn(CC2CCN(C)CC2)c2ncnc(N)c12 [Compound 79]	< 100	500 to 1000	
Cc1ccc(NC(=O)c2ccc(Cl)c(C(F)(F)F)c2)cc1C#Cc1nn(CC(=O)N2CCOCC2)c2ncnc(N)c12 [Compound 80]	< 100	> 1000	
Cc1ccc(NC(=O)c2ccc(Cl)c(C(F)(F)F)c2)cc1C#Cc1nn(C2CCN(S(C)(=O)=O)CC2)c2ncnc(N)c12 [Compound 81]	< 100	100 to 500	
Cc1ccc(NC(=O)c2ccc(Cl)c(C(F)(F)F)c2)cc1C#Cc1nn(C[C@@H](C)CO)c2ncnc(N)c12 [Compound 82]	< 100	100 to 500	
Cc1ccc(NC(=O)c2ccc(Cl)c(C(F)(F)F)c2)cc1C#Cc1nn(C[C@H](C)CO)c2ncnc(N)c12 [Compound 83]	< 100	100 to 500	
Cc1ccc(NC(=O)c2ccc(Cl)c(C(F)(F)F)c2)cc1C#Cc1nn([C@@H]2CCN(S(C)(=O)=O)C2)c2ncnc(N)c12 [Compound 84]	< 100	100 to 500	
Cc1ccc(NC(=O)c2ccc(Cl)c(C(F)(F)F)c2)cc1C#Cc1nn([C@@H]2CCN(C)C2)c2ncnc(N)c12 [Compound 85]	< 100	> 1000	
Cc1ccc(NC(=O)c2ccc(Cl)c(C(F)(F)F)c2)cc1C#Cc1nn(C2CCCN(C(=O)[C@H](C)O)C2)c2ncnc(N)c12 (stereo partly shown) [Compound 86]	< 100	> 1000	
Cc1ccc(NC(=O)c2ccc(Cl)c(C(F)(F)F)c2)cc1C#Cc1nn(C2CCCN(C(=O)[C@@H](C)O)C2)c2ncnc(N)c12 (stereo partly shown) [Compound 87]	< 100	> 1000	
Cc1ccc(NC(=O)c2ccc(Cl)c(C(F)(F)F)c2)cc1C#Cc1nn([C@@H]2CCCN(C(=O)[C@@H](C)O)C2)c2ncnc(N)c12 [Compound 88]	< 100	100 to 500	
Cc1ccc(NC(=O)c2ccc(Cl)c(C(F)(F)F)c2)cc1C#Cc1nn([C@@H]2CCCN(C)C2)c2ncnc(N)c12 [Compound 89]	< 100	100 to 500	
Cc1ccc(NC(=O)c2ccc(Cl)c(C(F)(F)F)c2)cc1C#Cc1nn([C@@H]2CCCN(S(C)(=O)=O)C2)c2ncnc(N)c12 [Compound 90]	< 100	500 to 1000	
Cc1ccc(NC(=O)c2ccc(Cl)c(C(F)(F)F)c2)cc1C#Cc1nn(C2CCCN(S(C)(=O)=O)C2)c2ncnc(N)c12 (stereo not shown) [Compound 91]	< 100	100 to 500	
Cc1ccc(NC(=O)c2ccc(Cl)c(C(F)(F)F)c2)cc1C#Cc1nn(C2CCCN(C)C2)c2ncnc(N)c12 (stereo not shown) [Compound 92]	< 100	100 to 500	
Cc1ccc(NC(=O)c2nc(C(C)(C)C)cs2)cc1C#Cc1nn(CC2CCN(C)C2)c2ncnc(N)c12 (stereo not shown) [Compound 94]	100 to 500	100 to 500	

SMILES	IC50 (MDA-MB-231) [nM]	IC50 (MDA-MB-435) [nM]	IC50 (c-Src(1-530)) [nM]
Cc1ccc(NC(=O)c2nc(C(C)(C)C)cs2)cc1C#Cc1nn(C[C@@H](C)CO)c2ncnc(N)c12 [Compound 95]	100 to 500	< 100	
Cc1ccc(NC(=O)c2nc(C(C)(C)C)cs2)cc1C#Cc1nn(CC2CCN(C)CC2)c2ncnc(N)c12 [Compound 96]	100 to 500	100 to 500	
Cc1ccc(NC(=O)c2nc(C(C)(C)C)cs2)cc1C#Cc1nn([C@@H]2CCN(C)C2)c2ncnc(N)c12 [Compound 97]	100 to 500	100 to 500	
Cc1ccc(NC(=O)c2ccc(C)c(C(F)(F)F)c2)cc1C#Cc1nn(CC2CCN(C)C2)c2ncnc(N)c12 (stereo not shown) [Compound 98]	< 100	< 100	
Cc1ccc(NC(=O)c2ccc(C)c(C(F)(F)F)c2)cc1C#Cc1nn(C[C@@H](C)CO)c2ncnc(N)c12 [Compound 99]	< 100	100 to 500	
Cc1ccc(NC(=O)c2cccc(C(F)(F)F)c2)cc1C#Cc1nn(C[C@@H](C)CO)c2ncnc(N)c12 [Compound 101]	< 100	< 100	
CCn1nc(C#Cc2cc(NC(=O)c3ccc(CN4CCN(C)CC4)c(C(F)(F)F)c3)ccc2C)c2c(N)ncnc21 [Compound 102]	< 100	< 100	
Cc1ccc(C(=O)Nc2cccc(C(F)(F)F)c2)cc1C#Cc1nn([C@H]2CC[C@H](O)CC2)c2ncnc(N)c12 [Compound 103]	< 100	< 100	
CCNc1ncnc2c1c(C#Cc1cc(C(=O)Nc3cccc(C(F)(F)F)c3)ccc1C)nn2CC [Compound 104]	100 to 500	100 to 500	
Cc1ccc(C(=O)Nc2cccc(C(F)(F)F)c2)cc1C#Cc1nn(C[C@@H](C)CO)c2ncnc(N)c12 [Compound 105]	< 100	100 to 500	
Cc1ccc(C(=O)Nc2cccc(C(F)(F)F)c2)cc1C#Cc1nn(C[C@H](C)CO)c2ncnc(N)c12 [Compound 106]	< 100	< 100	
Cc1ccc(C(=O)Nc2cccc(C(F)(F)F)c2)cc1C#Cc1nn([C@@H]2CCN(C)C2)c2ncnc(N)c12 [Compound 107]	< 100	< 100	
Cc1ccc(C(=O)Nc2cccc(C(F)(F)F)c2)cc1C#Cc1nn(CC2CCN(C)C2)c2ncnc(N)c12 (stereo not shown) [Compound 108]	< 100	100 to 500	
Cc1ccc(C(=O)Nc2cccc(C(F)(F)F)c2)cc1C#Cc1nn(CC2CCN(C)CC2)c2ncnc(N)c12 [Compound 109]	< 100	< 100	
Cc1ccc(NC(=O)c2ccc(C)c(C(F)(F)F)c2)cc1C#Cc1nn(C[C@H](C)CO)c2ncnc(N)c12 [Compound 110]	< 100	< 100	
Cc1ccc(NC(=O)c2cccc(C(F)(F)F)c2)cc1C#Cc1nn(C[C@H](C)CO)c2ncnc(N)c12 [Compound 111]	< 100	< 100	
Cc1ccc(NC(=O)c2ccc(C)c(C(F)(F)F)c2)cc1C#Cc1nn(CC2CCN(C)CC2)c2ncnc(N)c12 [Compound 115]	< 100	100 to 500	
Cc1ccc(NC(=O)c2ccc(C)c(C(F)(F)F)c2)cc1C#Cc1nn([C@@H]2CCN(C)C2)c2ncnc(N)c12 [Compound 116]	100 to 500	100 to 500	
Cc1ccc(NC(=O)c2cccc(C(C)(C)C)c2)cc1C#Cc1nn([C@H]2CC[C@H](O)CC2)c2ncnc(N)c12 [Compound 118]	< 100	< 100	
CCn1nc(C#Cc2cc(C(=O)Nc3cccc(C(F)(F)F)c3)ccc2C)c2c(N)ncnc21 [Compound 119]	100 to 500	100 to 500	
